The assay in a line: Sigma receptor binding was determined by labeling with radioligand [3H](+)-pentazocine on frozen membranes obtained from frozen guinea pig brain.

The IC50 is the concentration that inhibits the measured activity by half. High values mean lower potency, low ones higher potency. As for `Fc1ccc(C(OCCN2CCN(CCCc3ccco3)CC2)c2ccc(F)cc2)cc1` [1-{2-[Bis-(4-fluoro-phenyl)-methoxy]-ethyl}-4-(3-furan-2-yl-propyl)-piperazine], the IC50 is 0.062 µM.
The value for `Fc1ccc(C(OCCN2CCN(C/C=C/c3cccnc3)CC2)c2ccc(F)cc2)cc1` [1-{2-[Bis-(4-fluoro-phenyl)-methoxy]-ethyl}-4-((E)-3-pyridin-3-yl-allyl)-piperazine] was 0.059 µM; that for `Fc1ccc(C(OCCN2CCN(CCCc3cccs3)CC2)c2ccc(F)cc2)cc1` [1-{2-[Bis-(4-fluoro-phenyl)-methoxy]-ethyl}-4-(3-thiophen-2-yl-propyl)-piperazine] was 0.038 µM; that for `Fc1ccc(C(OCCN2CCN(CCCc3cccnc3)CC2)c2ccc(F)cc2)cc1` [1-{2-[Bis-(4-fluoro-phenyl)-methoxy]-ethyl}-4-(3-pyridin-3-yl-propyl)-piperazine] was 0.079 µM.
`Fc1ccc(C(OCCN2CCN(C/C=C/c3ccccc3)CC2)c2ccc(F)cc2)cc1` gave an IC50 of 0.051 µM.
As for `Fc1ccc(C(OCCN2CCN(C/C=C/c3ccco3)CC2)c2ccc(F)cc2)cc1` [1-{2-[Bis-(4-fluoro-phenyl)-methoxy]-ethyl}-4-((E)-3-furan-2-yl-allyl)-piperazine], the IC50 stood at 0.043 µM. This IC50 and that of the compound before are within 1.5-fold of each other.
Take `Fc1ccc(C(OCCN2CCN(C/C=C/c3cccs3)CC2)c2ccc(F)cc2)cc1` [1-{2-[Bis-(4-fluoro-phenyl)-methoxy]-ethyl}-4-((E)-3-thiophen-2-yl-allyl)-piperazine]: the IC50 is 0.041 µM.

(Values after BindingDB's records for doi:10.1021/jm9606599 (National Institute of Diabetes and Digestive and Kidney …, 1997).)
